Assay results as given in article PMC10285648, “iTAG an optimized IMiD-induced degron for targeted protein degradation in human and murine cells” (iScience, 2023).

Assays:
CT26 cells = assay: Quantitative multiplexed proteomics of CT26 cells treated with thalidomide derivatives; type: cell-based, mouse; details: 24h
Method: After showing that iTAG was active in mouse cells, we explored whether more potential degrons were active in the murine context. […]2216[50] and profiled the cellular proteomes using quantitative multiplexed proteomics. […] Data are plotted as Log2 fold change relative to DMSO versus Log10 of p value. (B) Proteome of CT26 CRBN KO cells treated with 10uM of FPFT2216 for 24h analyzed and plotted as in (A). (C) HEK293T, CT26, AT3 and 4434 cells treated with 10uM of FPFT2216 for 24h in presence of absence of MLN4924. […] were analyzed using western blotting. (D) Structural representation of PDE6D with the critical […] highlighted in red. (E) CT26, AT3 and 4434 cells transiently expressing WT or […] mutant Flag-PDE6D treated with 10uM of FPFT2216 for 16h. (F) Docking model for FPFT-2216 (in magenta) in the binding site of mouse CRBN (in orange). H-bond interactions are shown as cyan dashes. (G) Binding model for the ternary complex formed by mouse CRBN (in orange), mouse PDE6D (in cyan) and FPFT-2216 (in magenta), showing the […] loop close to the molecular glue. Samples for quantitative proteomics were prepared using the […] workflow.[60] Briefly, the cell pellets were lysed in a buffer containing 150 μL 0.1 M triethylammonium bicarbonate (TEAB), 1% sodium deoxycholate (SDC), 10% isopropanol, 50mM NaCl, 5 mM tris-2-carboxyethyl phosphine (TCEP), 10 mM iodoacetamide (IAA), universal nuclease, and supplemented with protease and phosphatase inhibitors. Samples were bath sonicated for 5 min, incubated at RT for 45 min and protein concentration was measured with the Bradford Protein Assay (Biorad) according to manufacturer instructions. Aliquots containing 30 μg of total protein were used for protein digestion. The resultant peptides were labeled with a tandem mass tag (TMTpro) multiplex reagent vial (Thermo Scientific) according to the manufacturer instructions. All the TMT-labelled samples were combined in equal amounts to a single tube. The TMT-peptide mixture was acidified with 1% formic acid and the precipitated SDC was removed by centrifugation. The sample was then dried with a centrifugal vacuum concentrator. LC-MS analysis was performed on the Dionex Ultimate 3000 UHPLC system coupled with the Orbitrap Lumos mass spectrometer (Thermo Scientific). Samples were analyzed with the EASY-Spray C18 capillary column (75 μm × 50 cm, 2 μm) at 50°C. […] MS3 quantification was obtained with higher-energy collisional dissociation (HCD) fragmentation of the top 5 most abundant CID fragments isolated with synchronous precursor selection (SPS). […] The SEQUEST-HT search engine was used to analyze the acquired mass spectra in Proteome Discoverer 2.4 (Thermo Scientific) for protein identification and quantification. […]

PDE6D = molecular target: T1, PDE6D (Mus musculus, UniProt O55057+Q8C7D2); assay: Western blot validation of PDE6D degradation; type: cell-based; details: AT3, 4434 and CT26, 10uM, 24h, western blotting
T1 construct: endogenous in cells; host or cells: AT3, 4434, CT26 (mouse); HEK293T run as human control
Method: (§1) Figure 6 FPFT2216 induces the degradation of PDE6D in murine cells (A) Proteomes of CT26 cells treated with 10uM of the indicated compounds for 24h and analyzed using quantitative proteomics. Data are plotted as Log2 fold change relative to DMSO versus Log10 of p value. (B) Proteome of CT26 CRBN KO cells treated with 10uM of FPFT2216 for 24h analyzed and plotted as in (A). (C) HEK293T, CT26, AT3 and 4434 cells treated with 10uM of FPFT2216 for 24h in presence of absence of MLN4924. Lysats were analyzed using western blotting. (D) Structural representation of PDE6D with the critical Glycine 28 highlighted in red. (E) CT26, AT3 and 4434 cells transiently expressing WT or G28N mutant Flag-PDE6D treated with 10uM of FPFT2216 for 16h. (F) Docking model for FPFT-2216 (in magenta) in the binding site of mouse CRBN (in orange). H-bond interactions are shown as cyan dashes. (G) Binding model for the ternary complex formed by mouse CRBN (in orange), mouse PDE6D (in cyan) and FPFT-2216 (in magenta), showing the Gly28 loop close to the molecular glue.
(§2) Cells were lysed with SDS lysis buffer (2% SDS, 10% Glycerol, 50mM Tris pH 6.8) and boiled at 95°C for 30min. Protein concentration was measured using Pierce BCA Protein Assay Kit (ThermoFischer) following manufacturer’s recommendations. […]

CK1α = assay: Western blot validation of CK1α degradation; type: cell-based, human, mouse; details: HEK293T versus AT3, 4434, CT26, 10uM, 24h, western blotting
Method: as §1, §2

Flag-PDE6D G28N mutant = molecular target: T2, Flag-PDE6D G28N mutant (Mus musculus, UniProt O55057, G28N); assay: Degradation of WT or G28N mutant Flag-PDE6D in murine cells; type: cell-based; details: CT26, AT3 and 4434, 10uM, 16h
T2 construct: expressed in transfected cells; host or cells: CT26, AT3 and 4434 murine cells, transient
Method: as §1
After validating PDE6D degradation, we progressed to identify the critical degron site on the protein. We hypothesized that PDE6D binding to CRBN would require a Gly loop motif and used known structural features of IMiD degrons to map this site in PDE6D (see STAR Methods for details). […]

T2 sequence (Q8C7D2 whole entry partner): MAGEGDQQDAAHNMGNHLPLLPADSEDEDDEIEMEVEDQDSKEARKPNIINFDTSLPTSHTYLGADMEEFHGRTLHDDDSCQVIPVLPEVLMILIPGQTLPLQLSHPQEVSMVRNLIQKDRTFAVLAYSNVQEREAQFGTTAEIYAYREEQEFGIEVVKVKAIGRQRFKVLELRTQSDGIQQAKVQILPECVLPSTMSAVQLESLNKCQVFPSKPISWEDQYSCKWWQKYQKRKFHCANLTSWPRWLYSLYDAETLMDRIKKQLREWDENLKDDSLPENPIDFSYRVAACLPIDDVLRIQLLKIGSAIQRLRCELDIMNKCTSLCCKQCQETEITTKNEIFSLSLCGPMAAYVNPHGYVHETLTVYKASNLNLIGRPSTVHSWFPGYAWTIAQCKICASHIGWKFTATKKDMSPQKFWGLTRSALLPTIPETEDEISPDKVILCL
T2 sequence (Q3U1J4 2-1140 partner limits assumed): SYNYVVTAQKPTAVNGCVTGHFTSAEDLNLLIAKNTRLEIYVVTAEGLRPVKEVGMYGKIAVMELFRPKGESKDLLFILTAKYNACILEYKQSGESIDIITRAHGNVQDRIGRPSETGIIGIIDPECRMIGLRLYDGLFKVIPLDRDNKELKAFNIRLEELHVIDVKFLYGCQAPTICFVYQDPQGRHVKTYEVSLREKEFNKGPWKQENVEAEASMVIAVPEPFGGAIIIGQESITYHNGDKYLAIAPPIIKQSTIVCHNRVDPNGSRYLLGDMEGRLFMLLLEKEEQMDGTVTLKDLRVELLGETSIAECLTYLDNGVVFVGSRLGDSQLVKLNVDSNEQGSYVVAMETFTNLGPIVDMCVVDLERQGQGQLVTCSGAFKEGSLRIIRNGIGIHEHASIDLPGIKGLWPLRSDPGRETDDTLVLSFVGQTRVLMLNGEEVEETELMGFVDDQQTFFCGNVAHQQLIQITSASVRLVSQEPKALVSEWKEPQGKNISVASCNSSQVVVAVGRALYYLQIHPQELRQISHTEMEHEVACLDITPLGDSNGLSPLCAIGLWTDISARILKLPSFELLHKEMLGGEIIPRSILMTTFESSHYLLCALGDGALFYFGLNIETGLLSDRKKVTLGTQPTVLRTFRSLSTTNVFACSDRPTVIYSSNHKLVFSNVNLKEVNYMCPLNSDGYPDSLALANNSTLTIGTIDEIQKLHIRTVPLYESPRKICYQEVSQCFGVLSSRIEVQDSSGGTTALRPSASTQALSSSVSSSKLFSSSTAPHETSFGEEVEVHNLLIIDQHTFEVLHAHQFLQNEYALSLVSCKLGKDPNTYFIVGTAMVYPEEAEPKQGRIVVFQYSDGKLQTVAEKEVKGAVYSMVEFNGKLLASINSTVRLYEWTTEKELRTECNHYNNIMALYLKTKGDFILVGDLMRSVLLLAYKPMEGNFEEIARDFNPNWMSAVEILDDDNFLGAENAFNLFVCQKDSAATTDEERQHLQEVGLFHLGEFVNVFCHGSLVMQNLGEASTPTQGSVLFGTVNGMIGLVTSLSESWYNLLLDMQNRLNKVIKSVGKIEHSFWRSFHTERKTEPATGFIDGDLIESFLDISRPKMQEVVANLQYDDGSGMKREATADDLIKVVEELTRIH
T2 sequence (O55057 whole entry G28N): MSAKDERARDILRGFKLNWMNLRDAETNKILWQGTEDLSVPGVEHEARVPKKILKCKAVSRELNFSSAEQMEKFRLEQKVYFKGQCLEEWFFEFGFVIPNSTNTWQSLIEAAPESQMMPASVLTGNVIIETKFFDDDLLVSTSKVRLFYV
T1 sequence (O55057 whole entry): as the sequence (O55057 whole entry G28N) above, with N28G counted along it
T1 sequence (Q8C7D2 whole entry): as the sequence (Q8C7D2 whole entry partner) above
T1 sequence (Q3U1J4 2-1140 partner limits assumed): as the sequence (Q3U1J4 2-1140 partner limits assumed) above

degradation of PDE6D (PDE6D): induced the degradation of PDE6D | degradation of G28N mutant PDE6D (Flag-PDE6D G28N mutant): not degraded
SMILES: COc1cscc1-c1cn(C2CCC(=O)NC2=O)nn1 (centres unmarked) [FPFT2216]
effect on cellular proteome (CT26 cells; CT26, 10uM): strong downregulation of PDE6D, Rab28 and to a much lesser extent CK1α | CRBN dependence of proteome effects (CT26 cells; CT26 CRBN KO cells, 10uM): CRBN dependent | degradation of CK1α (CK1α): only degraded in human cells
